By inhibition is commonly meant how much of the control response was suppressed.

SMILES strings stand for the structures. Read-outs that look alike come from different tables or passages of the source.

In data set [1] the test system is human piastrines stimulated by arachidonic acid. Nature of the data set: Anti-aggregating piastrinic activity, aggregation induced by arachidonic acid. The following applies: Platelet; for activity at 100 µM / activity at 10 µM: read-out: Piastrinic aggregation (%) induced by arachidonic acid. It is filed as cell-based. On the procedure: (§1) For the in vitro tests (piastrinic tests) the nitroderivatives, 1 mmol, were dissolved in dimethylsulfoxide and then diluted according to the concentrations listed in the Table.
(§2) Aspirin ASA 30 mmols was dissolved in a mixture of etanol:H2 O in the range 1:10 by volume and then diluted according to the concentrations listed in the Table.

Data set [2] has as its system human piastrines stimulated by trombin. Description: Anti-aggregating piastrinic activity, aggregation induced by trombin. Format: cell-based. The following applies: for activity at 1000 µM / activity at 100 µM / activity at 10 µM: read-out: Piastrinic aggregation (%) induced by trombin. The procedure: as §1, §2
The target of the next data set is T1, cyclooxygenases (Homo sapiens, UniProt P23219).
T1 construct: endogenous in cells; host or cells: human platelets
T1 sequence (P23219 24-599): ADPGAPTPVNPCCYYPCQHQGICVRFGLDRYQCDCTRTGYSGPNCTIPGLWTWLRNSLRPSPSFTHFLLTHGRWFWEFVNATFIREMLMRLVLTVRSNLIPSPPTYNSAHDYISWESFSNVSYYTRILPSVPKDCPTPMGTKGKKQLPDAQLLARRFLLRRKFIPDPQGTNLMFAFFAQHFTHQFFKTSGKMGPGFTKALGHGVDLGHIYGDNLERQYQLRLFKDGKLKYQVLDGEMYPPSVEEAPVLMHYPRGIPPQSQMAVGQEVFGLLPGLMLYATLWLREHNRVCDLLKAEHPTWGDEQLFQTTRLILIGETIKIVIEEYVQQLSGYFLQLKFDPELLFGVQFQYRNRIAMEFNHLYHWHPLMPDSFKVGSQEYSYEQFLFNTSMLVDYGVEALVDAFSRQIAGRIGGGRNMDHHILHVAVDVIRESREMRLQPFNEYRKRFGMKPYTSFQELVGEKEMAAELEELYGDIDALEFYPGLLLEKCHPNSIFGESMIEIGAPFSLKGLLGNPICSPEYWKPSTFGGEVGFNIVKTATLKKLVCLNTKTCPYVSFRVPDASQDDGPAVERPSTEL
Description: COX inhibition in human piastrines (Tromboxan B2 level). Format: cell-based. The following applies: for COX inhibition (%): 5.10^-5 M; for COX inhibition (%) / inhibition at 100 µM / inhibition at 10 µM: % referred to controls (adding of the aggregating substance only); for inhibition at 100 µM: 10^-4 M; for inhibition at 10 µM: 10^-5 M. The procedure:
as §1, §2
The inhibition activity of the cyclooxygenases was determined in human piastrines according to the method described by Patrono et al (Thrombosis Res. 17, 317, 1980). The enzimatic activity was expressed as level of Tromboxan B2 (TX B2) and measured in ng/ml.

The subject of data set [3] is intestinal gastric mucose. Nature of the data set: Gastric tolerability, oral, in the rat. It is filed as in vivo. Conditions: for Gastric tolerance: in vivo; for Gastric damage: oral. The procedure: In the in vivo studies (for example toxicity) the products obtained above were administered in form of suspension in carboxymethylcellulose 1-2% by weight.
The gastric tolerability was evaluated through oral subministration in the rat measuring the seriousness of the gastropathie induced according to the criterium indicated by Wallace et al. (Am. J. Physiol. 259, G642, 1990).

A further data set deals with piastrinic adhesion. Nature of the data set: Piastrinic adhesion. Format: cell-based. The following applies: from 10^-5 to 10^-4 M. On the procedure:
as §1, §2
The inhibition activity of the piastrinic adhesion was evaluated according to the method described by Bellavite et al. (Anal. Biochem. 216, 444, 1994).

Data set [4] has as its system calcium concentration inside the piastrine. Nature of the data set: Intracellular piastrinic calcium. It is filed as cell-based. Conditions: from 10^-5 to 10^-4 M. On the procedure:
as §1, §2
The effect of the compounds of the invention or comparison compounds on the calcium concentration inside the piastrine was measured according to the method of Pollock et al. (Biochem. J. 235, 869, 1986).

[5] abbreviates: 10^-4 M, % referred to controls (adding of the aggregating substance only).
The mark [6] stands for this setting: 10^-5 M, % referred to controls (adding of the aggregating substance only).
Setting [7] is: Homo sapiens, Platelet, 10^-4 M, % referred to controls (adding of the aggregating substance only).

For `CC(=O)Oc1ccccc1C(=O)OCCCCO[N+](=O)[O-]` [ANBE, 2-acetoxy-benzoate of (4-nitroxy)butyl], the activity at 1000 µM in data set [1] (10^-3 M, % referred to controls (adding of the aggregating substance only)) amounted to 20%. Moreover, in data set [1] (setting [5]), the activity at 100 µM is 50%. For the same compound, the activity at 10 µM in data set [1] (setting [6]) came out at 100%. Further, the activity at 1000 µM in data set [2] (Homo sapiens, Platelet, 10^-3 M, % referred to controls (adding of the aggregating substance only)) was determined as 50%. Also, in data set [2] (setting [7]), the activity at 100 µM is 60%. Moreover, on cyclooxygenases, the “COX inhibition (%)” value is listed as 70%, testing at 100 µM gave an inhibition of 30% and the inhibition at 10 µM turned out to be 80%. The Gastric tolerance result in data set [3] is on record as “very well tolerated in the gastric mucose”. Further, the Gastric damage result in data set [3] (250-500 mg/Kg) is listed as “did not produce relevant damages”.

Regarding `CC(=O)Oc1ccccc1C(=O)O` [ASA, acetylsalicilic acid], in data set [1], the activity at 10 µM came to 40% and the activity at 100 µM worked out at 0%. Moreover, in data set [2] (Homo sapiens, Platelet), the activity at 10 µM is 100%, the activity at 100 µM turned out to be 100% and the activity at 1000 µM is 80%. Further, on cyclooxygenases, the “COX inhibition (%)” value was 3% and at 100 µM the inhibition was 1%. Further, the Gastric damage entry in data set [3] (50-100 mg/Kg) was “severe damages”.

`CC(=O)Oc1ccccc1C(=O)Oc1cccc(CO[N+](=O)[O-])c1` [ANMPE, 2-acetoxy-benzoate of (3-nitroxymetyhyl)fenyl]: the “Inhibition of piastrinic adhesion” value with piastrinic adhesion is “efficient in inhibiting significantly and in a dose-dependent way”. Further, the activity at 50 µM in data set [1] (5.10^-5 M, % referred to controls (adding of the aggregating substance only)) was found to be 10%; in data set [2] (Homo sapiens, Platelet, 5.10^-5 M, % referred to controls (adding of the aggregating substance only)), 40%. Further, the activity at 100 µM in data set [1] (setting [5]) and in data set [2] (setting [7]) was 0% in each case. Besides, the activity at 10 µM worked out at 60% in data set [1] (setting [6]) and 70% in data set [2] (Homo sapiens, Platelet, 10^-5 M, % referred to controls (adding of the aggregating substance only)). Further, in data set [2] (versus ASA and ANBE), the “Inhibition of piastrinic aggregation induced by trombin, comparison in words” value is “values surprisingly higher both with respect to ANBE and ASA”. The “COX inhibition (%)” value on cyclooxygenases came to 2%. In addition, at 10 µM the inhibition against cyclooxygenases was 5%. Further, at cyclooxygenases (versus ASA and ANBE), the “COX inhibition, comparison in words” value is recorded as “activities similar to ASA, but well higher with respect to ANBE”. In data set [4], the “Inhibition of intracellular piastrinic calcium” value is “efficient in inhibiting significantly and in a dose-dependent way”. For the same compound, the Gastric tolerance result in data set [3] is “very well tolerated in the gastric mucose”. The Gastric damage result in data set [3] (250-500 mg/Kg) is listed as “did not produce relevant damages”.
